# From ChEMBL document CHEMBL1201862, “PubChem BioAssay data set” (2004)
#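 Compound exposure: 48 hours, 5 concentrations, 96-well plates. GI50 = concentration required for 50% inhibition of growth.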 Calls of active or inactive are those of the source. Cut-off read from the data, not from the text of the source: active = GI50 up to about 1.1 µM and inactive = higher.
# Assays:
# Assay in all cases: NCI anticancer screen, dose series, 48 h
# [1] = tested on: A498
# [2] = tested on: HCT-15
# [3] = tested on: HL-60
# [4] = tested on: HOP-92
# [5] = tested on: K562
# [6] = tested on: MCF7
# [7] = tested on: NCI/ADR-RES
# [8] = tested on: OVCAR-3
# [9] = tested on: OVCAR-8
# [10] = tested on: SNB-78
# [11] = tested on: UACC-62
# [12] = tested on: ACHN
# [13] = tested on: BT-549
# [14] = tested on: DU-145
# [15] = tested on: Hs-578T
# [16] = tested on: MDA-MB-231
# [17] = tested on: MDA-MB-435
# [18] = tested on: MDA-N
# [19] = tested on: PC-3
# [20] = tested on: T47D
Compound,GI50 [1],GI50 [2] [µM],GI50 [3],GI50 [4],GI50 [5],GI50 [6],GI50 [7],GI50 [8],GI50 [9],GI50 [10],GI50 [11],GI50 [12],GI50 [13],GI50 [14],GI50 [15],GI50 [16],GI50 [17],GI50 [18],GI50 [19],GI50 [20]
CCCSc1nc(COC(=O)NC)c(COC(=O)NC)n1C,> 62.7 µM (inactive),> 83,43.9 µM (inactive),> 71 µM (inactive),31.4 µM (inactive),47.6 µM (inactive),> 100 µM (inactive),> 100 µM (inactive),> 100 µM (inactive),> 80.5 µM (inactive),> 100 µM (inactive),,,,,,,,,
C/C=C/C(C#N)O[Si](C)(C)C (centres undefined),> 100 µM (inactive),> 100,> 100 µM (inactive),> 100 µM (inactive),,,,> 100 µM (inactive),> 100 µM (inactive),> 100 µM (inactive),> 100 µM (inactive),> 100 µM (inactive),,,,,,,,
CC1(C)C2CCC3(OCCO3)C1C1OC12 (centres undefined),> 100 µM (inactive),> 100,> 100 µM (inactive),> 100 µM (inactive),> 100 µM (inactive),,,> 100 µM (inactive),> 100 µM (inactive),> 100 µM (inactive),,> 100 µM (inactive),,,,,,,,
C=C(Nc1ccc(OC)cc1OC)C(=O)Cc1cccc[n+]1[O-],> 100 µM (inactive),> 100,> 100 µM (inactive),> 100 µM (inactive),> 100 µM (inactive),,,> 100 µM (inactive),> 100 µM (inactive),> 100 µM (inactive),> 100 µM (inactive),> 100 µM (inactive),,,,,,,,
CCOC(=O)C1C(=O)CN2CCc3c([nH]c4ccccc34)C12C(=O)OCC (centres undefined),> 100 µM (inactive),> 100,> 100 µM (inactive),> 100 µM (inactive),> 100 µM (inactive),,,> 100 µM (inactive),> 100 µM (inactive),> 100 µM (inactive),> 100 µM (inactive),> 100 µM (inactive),,,,,,,,
Cc1ccc(NC(=O)/C(=N\Nc2ccc([N+](=O)[O-])cc2[N+](=O)[O-])C2C(=O)NC(=O)NC2=O)cc1,> 100 µM (inactive),6.31,35.7 µM (inactive),> 100 µM (inactive),26.2 µM (inactive),,,> 100 µM (inactive),55.7 µM (inactive),> 100 µM (inactive),7.13 µM (inactive),23.3 µM (inactive),,,,,,,,
Cc1ccc(-c2nnc3s/c(=C\c4ccc(N(C)C)cc4)c(=O)n23)cc1,89.9 µM (inactive),,> 100 µM (inactive),> 100 µM (inactive),> 10 µM (inactive),,,> 100 µM (inactive),> 100 µM (inactive),> 100 µM (inactive),> 100 µM (inactive),> 100 µM (inactive),,,,,,,,
O=S(=O)(N/N=C/c1c(Cl)cccc1Cl)c1ccccc1,> 100 µM (inactive),> 100,29.9 µM (inactive),> 100 µM (inactive),> 100 µM (inactive),,,> 100 µM (inactive),> 100 µM (inactive),> 100 µM (inactive),97.7 µM (inactive),,,,,,,,,
N#CCC(=O)N/N=C1\C(=O)N(c2ccc(Cl)cc2)C(=O)C(=O)C1c1nc2ccccc2o1 (centres undefined),> 100 µM (inactive),> 100,> 100 µM (inactive),91.8 µM (inactive),,,,> 100 µM (inactive),> 100 µM (inactive),> 100 µM (inactive),> 100 µM (inactive),> 100 µM (inactive),,,,,,,,
Cc1ccc(S(=O)(=O)OC(COC(=O)c2ccccc2)C(OS(=O)(=O)c2ccc(C)cc2)C(OS(=O)(=O)c2ccc(C)cc2)C(COC(=O)c2ccccc2)OS(=O)(=O)c2ccc(C)cc2)cc1 (centres undefined),> 100 µM (inactive),> 100,> 100 µM (inactive),> 100 µM (inactive),> 100 µM (inactive),,,> 100 µM (inactive),> 100 µM (inactive),> 100 µM (inactive),> 10 µM (inactive),> 100 µM (inactive),,,,,,,,
CC(=O)c1cccc(NC(=O)C(=O)C(C(=O)c2ccccc2F)C2OC(=O)c3ccccc32)c1 (centres undefined),91.6 µM (inactive),30.2,24 µM (inactive),> 100 µM (inactive),32.1 µM (inactive),,,,31.8 µM (inactive),12.5 µM (inactive),34.6 µM (inactive),37.7 µM (inactive),,,,,,,,
CN(/N=C/c1cccc2cccnc12)c1ccc([N+](=O)[O-])cc1[N+](=O)[O-],17.4 µM (inactive),63,40.8 µM (inactive),14.8 µM (inactive),> 100 µM (inactive),40.8 µM (inactive),39.8 µM (inactive),16.4 µM (inactive),32.7 µM (inactive),18.4 µM (inactive),25.1 µM (inactive),22 µM (inactive),21.3 µM (inactive),65.5 µM (inactive),9.71 µM (inactive),23.1 µM (inactive),> 100 µM (inactive),> 100 µM (inactive),55 µM (inactive),23.1 µM (inactive)
C/C(=C/c1c(C)[nH]c(=O)[nH]c1=O)C(=O)O,> 1370 µM (inactive),> 1370,> 1370 µM (inactive),,> 1370 µM (inactive),> 1370 µM (inactive),> 1370 µM (inactive),> 1370 µM (inactive),,> 1370 µM (inactive),> 1370 µM (inactive),,,,,,,,,
Cc1cccc(C)c1NC(=O)C(=O)C1C(=O)N(c2ccccc2)N=C1N (centres undefined),> 100 µM (inactive),> 100,> 100 µM (inactive),> 100 µM (inactive),> 100 µM (inactive),,,> 100 µM (inactive),> 100 µM (inactive),> 100 µM (inactive),> 100 µM (inactive),> 100 µM (inactive),,,,,,,,
O=C1C=C(Br)c2c(-c3ccccc3)oc3cccc1c23,> 75.7 µM (inactive),> 45.7,19.1 µM (inactive),25.4 µM (inactive),> 50.9 µM (inactive),2.62 µM (inactive),48 µM (inactive),> 57.1 µM (inactive),58.2 µM (inactive),35.6 µM (inactive),38.1 µM (inactive),49 µM (inactive),> 100 µM (inactive),31.6 µM (inactive),29.3 µM (inactive),26.4 µM (inactive),17.1 µM (inactive),18.4 µM (inactive),> 100 µM (inactive),6.21 µM (inactive)
C[C@@H]1O[C@]2(O)[C@@H]3CCCN3S(=O)(=O)CCN2C1=O,> 100 µM (inactive),> 100,> 100 µM (inactive),> 100 µM (inactive),> 100 µM (inactive),,,> 100 µM (inactive),> 100 µM (inactive),> 100 µM (inactive),> 100 µM (inactive),> 100 µM (inactive),,,,,,,,
COc1ccc(NC(=O)C(=O)NO)c(OC)c1,21.5 µM (inactive),16.3,17.1 µM (inactive),20.6 µM (inactive),19.8 µM (inactive),,,16.6 µM (inactive),15 µM (inactive),19.8 µM (inactive),14.8 µM (inactive),15.9 µM (inactive),,,,,,,,
"O=C1/C(=C/c2ccccc2)CCC/C1=C\c1ccccc1 [2,6-DIBENZYLIDENECYCLOHEXANONE]",16.1 µM (inactive),8.07,2.8 µM (inactive),17.5 µM (inactive),3.58 µM (inactive),1.74 µM (inactive),8.77 µM (inactive),10.4 µM (inactive),8.26 µM (inactive),17.5 µM (inactive),13.2 µM (inactive),15.7 µM (inactive),5.81 µM (inactive),6.97 µM (inactive),8.2 µM (inactive),6.07 µM (inactive),5.62 µM (inactive),2.79 µM (inactive),5.89 µM (inactive),6.4 µM (inactive)
